Measured values reported in patent US12679848B2, “Plasma kallikrein inhibitors” (Merck Sharp & Dohme LLC, priority 2020, dated 2026).
pIC50: −log10 of the molar value.

Key:
[1] = target: T1, Human plasma kallikrein (Homo sapiens, UniProt P03952); experiment: Plasma Kallikrein Assay; format: biochemical; details: purified Human plasma kallikrein 0.5 nM, substrate Acetyl-K-P-R-AFC, HEPES pH 7.4; read-out: PKal IC50
T1 construct: yields a heavy chain (371 amino acids) and a light chain (248 amino acids); The active site of plasma kallikrein is contained in the light chain; purchased Enzyme Research Laboratories
T1 sequence (P03952 391-638 limits assumed): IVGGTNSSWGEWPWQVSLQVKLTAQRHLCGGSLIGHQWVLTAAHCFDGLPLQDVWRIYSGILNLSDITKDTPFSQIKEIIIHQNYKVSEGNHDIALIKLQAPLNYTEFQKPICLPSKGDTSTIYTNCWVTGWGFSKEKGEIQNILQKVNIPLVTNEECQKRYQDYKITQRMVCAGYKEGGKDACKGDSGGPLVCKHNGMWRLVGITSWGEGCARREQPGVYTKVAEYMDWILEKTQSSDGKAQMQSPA
T1 sequence (P03952 20-390 partner limits assumed): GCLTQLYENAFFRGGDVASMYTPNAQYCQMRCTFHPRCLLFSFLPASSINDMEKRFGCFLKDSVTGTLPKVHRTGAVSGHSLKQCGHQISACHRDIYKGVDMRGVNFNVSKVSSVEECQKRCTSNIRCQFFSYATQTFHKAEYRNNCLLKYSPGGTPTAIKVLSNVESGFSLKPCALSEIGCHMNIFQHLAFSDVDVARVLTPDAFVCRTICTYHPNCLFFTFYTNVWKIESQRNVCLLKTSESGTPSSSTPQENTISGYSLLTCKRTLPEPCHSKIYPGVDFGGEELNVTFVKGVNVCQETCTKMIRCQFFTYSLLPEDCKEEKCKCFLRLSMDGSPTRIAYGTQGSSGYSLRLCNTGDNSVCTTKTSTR
Experimental: (§1) The effectiveness of a compound of the present invention as an inhibitor of plasma kallikrein can be determined using a relevant purified serine protease, and an appropriate synthetic substrate. The rate of hydrolysis of the chromogenic or fluorogenic substrate by the relevant serine protease was measured both in the absence and presence of compounds of the present invention. Assays were conducted at rt or at 37° C. […] A decrease in the rate of fluorescence change in the presence of inhibitor is indicative of enzyme inhibition. Such methods are known to one skilled in the art. The results of this assay are expressed as the half-maximal inhibitory concentrations (IC50), or the inhibitory constant, Ki.
Plasma kallikrein determinations were made in 50 mM HEPES buffer at pH 7.4 containing 150 mM NaCl, 5 mM CaCl2), and 0.1% PEG 8000 (polyethylene glycol; Fisher Scientific). Determinations were made using purified Human plasma kallikrein at a final concentration of 0.5 nM (Enzyme Research Laboratories) and the synthetic substrate, Acetyl-K—P—R-AFC (Sigma #C6608) at a concentration of […].
Times required to achieve equilibration between enzyme and inhibitor were determined in control experiments. […] IC50 was determined by inflection point from a four parameter logistic curve fit. Ki was calculated using the Cheng Prusoff equation, Ki=IC50/[…](1+([S]/Km)).

[2] = target: human factor XIa (Homo sapiens, UniProt P03951); experiment: Factor XIa Assay; format: biochemical; details: human factor XIa 0.04 nM, substrate GPR-AFC, 30 min pre-incubation, 25° C., pH 7.4; read-out: FXIa IC50
Chain of human factor XIa (P03951 388-625 limits assumed): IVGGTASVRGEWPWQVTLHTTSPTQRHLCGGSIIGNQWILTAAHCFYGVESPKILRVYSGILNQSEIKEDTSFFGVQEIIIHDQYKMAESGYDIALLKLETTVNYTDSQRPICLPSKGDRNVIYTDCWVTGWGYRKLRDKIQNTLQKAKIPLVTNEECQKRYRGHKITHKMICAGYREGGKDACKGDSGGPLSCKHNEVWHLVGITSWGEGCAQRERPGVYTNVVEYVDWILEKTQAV
Chain of human factor XIa (P03951 19-387 partner limits assumed): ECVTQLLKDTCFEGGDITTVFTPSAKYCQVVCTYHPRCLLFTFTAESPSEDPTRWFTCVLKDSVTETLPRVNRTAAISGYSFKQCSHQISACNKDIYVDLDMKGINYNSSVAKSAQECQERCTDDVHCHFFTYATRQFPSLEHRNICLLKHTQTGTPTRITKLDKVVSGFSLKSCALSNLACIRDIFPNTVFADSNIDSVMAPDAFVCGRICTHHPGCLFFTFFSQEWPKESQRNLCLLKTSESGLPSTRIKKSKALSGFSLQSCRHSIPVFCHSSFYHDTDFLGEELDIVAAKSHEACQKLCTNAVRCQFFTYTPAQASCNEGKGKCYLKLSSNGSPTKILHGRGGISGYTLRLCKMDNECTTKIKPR
Experimental: as §1, with “Coagulation factor XIa” for “plasma kallikrein”
Compounds were pre-incubated for 30 min at 25° C. with human (0.04 nM) factor XIa in 50 mM HEPES buffer with 150 mM sodium chloride, 5 mM calcium chloride, 0.1% PEG 8000, pH 7.4. factor XIa enzymatic activity was determined by addition of the substrate glycine-proline-arginine-7-amido-4-trifluoromethylcoumarin (GPR-AFC) and measurement of the fluorescence at 400/505 nm after a 60 min incubation at 25° C. The % inhibition for each data point was calculated from the data and analyzed using the log (inhibitor) vs. response four parameters equation to determine the half-maximal inhibitory concentrations (IC50). The IC50 were converted to equilibrium inhibitory constants (Ki) using the Cheng-Prusoff equation.

SMILES | pIC50 [1] | pIC50 [2]
Nc1c(C(=O)N2CCC[C@@]3(C2)OC(=O)Nc2ccc(Cl)c(F)c23)cnn1CC(F)(F)F [Example 1, (R)-1′-(5-Amino-1-(2,2,2-trifluoroethyl)-1H-pyrazole-4-carbonyl)-6-chloro-5-fluorospiro[benzo[d][1,3]oxazine-4,3′-piperidin]-2(1H)-one] | 7.95 | 6.39
CC1(C)CN(C(=O)c2cnn(CC(F)(F)F)c2N)C[C@]2(C1)OC(=O)Nc1ccc(Cl)c(F)c12 [Example 2, (R)-1′-(5-Amino-1-(2,2,2-trifluoroethyl)-1H-pyrazole-4-carbonyl)-6-chloro-5-fluoro-5′,5′-dimethylspiro[benzo[d][1,3]oxazine-4,3′-piperidin]-2(1H)-one] | 8.57 | 6.68
Nc1c(C(=O)N2CCC[C@@]3(C2)OC(=O)Nc2ccc(Cl)c(F)c23)cnn1Cc1cccc(C(F)(F)F)c1 [Example 5, (R)-1'-(5-Amino-1-(3-(trifluoromethyl)benzy1)-1H-pyrazole-4-carbonyl)-6-chloro-5-fluorospiro[benzo[d][1,3]oxazine-4,3'-piperidin]-2(1H)-one] | 8.77 | 6.14
Nc1c(C(=O)N2CCC[C@@]3(C2)OC(=O)Nc2ccc(Cl)c(F)c23)cnn1Cc1cccc(Cl)c1 [Example 6, (R)-1'-(5-Amino-1-(3-chlorobenzyl)-1H-pyrazole-4-carbonyl)-6-chloro-5-fluorospiro[benzo[d][1,3]oxazine-4,3'-piperidin]-2(1H)-one] | 9.30 | 6.75
Cc1ccc(Cn2ncc(C(=O)N3CCC[C@@]4(C3)OC(=O)Nc3ccc(Cl)c(F)c34)c2N)cc1 [Example 7, (R)-1'-(5-Amino-1-(4-methylbenzyl)-1H-pyrazole-4-carbonyl)-6-chloro-5-fluorospiro[benzo[d][1,3]oxazine-4,3'-piperidin]-2(1H)-one] | 9.30 | 6.70
Nc1c(C(=O)N2CCC[C@@]3(C2)OC(=O)Nc2ccc(Cl)c(F)c23)cnn1Cc1cccc(F)c1 [Example 9, (R)-1'-(5-Amino-1-(3-fluorobenzyl)-1H-pyrazole-4-carbonyl)-6-chloro-5-fluorospiro[benzo[d][1,3]oxazine-4,3'-piperidin]-2(1H)-one] | 9.05 | 6.60
CC1(C)CN(C(=O)c2cnn(Cc3ccccc3)c2N)C[C@]2(C1)OC(=O)Nc1ccc(Cl)c(F)c12 [Example 10, (R)-1'-(5-Amino-1-benzyl-1H-pyrazole-4-carbonyl)-6-chloro-5-fluoro-5',5'-dimethylspiro[benzo[d][1,3]oxazine-4,3'-piperidin]-2(1H)-one] | 8.89 | 6.91
Cc1noc(C)c1Cn1ncc(C(=O)N2CCC[C@@]3(C2)OC(=O)Nc2ccc(Cl)c(F)c23)c1N [Example 11, (R)-1'-(5-Amino-1-((3,5-dimethylisoxazol-4-yl)methyl)-1H-pyrazole-4-carbonyl)-6-chloro-5-fluorospiro[benzo[d][1,3]oxazine-4,3'-piperidin]-2(1H)-one] | 8.77 | 6.36

Second part, the compound after the results:

pIC50 [1] | pIC50 [2] | SMILES
8.35 | 6.81 | Nc1c(C(=O)N2CCC[C@@]3(C2)OC(=O)Nc2ccc(Cl)c(F)c23)cnn1C(C1CC1)C(F)(F)F (single isomer, unassigned) [Example 125, (R)-1'-(5-Amino-1-((S or R)-1-cyclopropyl-2,2,2-trifluoroethyl)-1H-pyrazole-4-carbonyl)-6-chloro-5-fluorospiro[benzo[d][1,3]oxazine-4,3'-piperidin]-2(1H)-one]
8.66 | 6.34 | CC(C1CC1)(n1ncc(C(=O)N2CCC[C@@]3(C2)OC(=O)Nc2ccc(Cl)c(F)c23)c1N)C(F)(F)F (single isomer, unassigned) [Example 126, (R)-1'-(5-Amino-1-((R or S)-2-cyclopropyl-1,1,1-trifluoropropan-2-y1)-1H-pyrazole-4-carbonyl)-6-chloro-5-fluorospiro[benzo[d][1,3]oxazine-4,3'-piperidin]-2(1H)-one]
8.17 | 5.99 | CC(C1CC1)(n1ncc(C(=O)N2CCC[C@@]3(C2)OC(=O)Nc2ccc(Cl)c(F)c23)c1N)C(F)(F)F (single isomer, unassigned) [Example 127, (R)-1'-(5-Amino-1-((S or R)-2-cyclopropyl-1,1,1-trifluoropropan-2-y1)-1H-pyrazole-4-carbonyl)-6-chloro-5-fluorospiro[benzo[d][1,3]oxazine-4,3'-piperidin]-2(1H)-one]
8.33 | 6.01 | COCC(C)(n1ncc(C(=O)N2CCC[C@@]3(C2)OC(=O)Nc2ccc(Cl)c(F)c23)c1N)C(F)(F)F (single isomer, unassigned) [Example 128, (R)-1'-(5-Amino-1-((R or S)-1,1,1-trifluoro-3-methoxy-2-methylpropan-2-y1)-1H-pyrazole-4-carbonyl)-6-chloro-5-fluorospiro[benzo[d][1,3]oxazine-4,3'-piperidin]-2(1H)-one]
8.19 | 6.05 | COCC(C)(n1ncc(C(=O)N2CCC[C@@]3(C2)OC(=O)Nc2ccc(Cl)c(F)c23)c1N)C(F)(F)F (single isomer, unassigned) [Example 129]
8.80 | 8.10 | CCC(n1ncc(C(=O)N2CC(C)(C)C[C@@]3(C2)OC(=O)Nc2ccc(Cl)c(F)c23)c1N)C(F)(F)F (single isomer, unassigned) [Example 130, (R)-1'-(5-Amino-1-((R or S)-1,1,1-trifluorobutan-2-y1)-1H-pyrazole-4-carbonyl)-6-chloro-5-fluoro-5',5'-dimethylspiro[benzo[d][1,3]oxazine-4,3'-piperidin]-2(1H)-one]
8.92 | 7.15 | CCC(n1ncc(C(=O)N2CC(C)(C)C[C@@]3(C2)OC(=O)Nc2ccc(Cl)c(F)c23)c1N)C(F)(F)F (single isomer, unassigned) [Example 131, (R)-1'-(5-Amino-1-((S or R)-1,1,1-trifluorobutan-2-y1)-1H-pyrazole-4-carbonyl)-6-chloro-5-fluoro-5',5'-dimethylspiro[benzo[d][1,3]oxazine-4,3'-piperidin]-2(1H)-one]
8.09 | 6.32 | Nc1c(C(=O)N2CCC[C@@]3(C2)OC(=O)Nc2ccc(Cl)c(F)c23)cnn1CC1CCOCC1 [Example 12, (R)-1'-(5-Amino-1-((tetrahydro-2H-pyran-4-yl)methyl)-1H-pyrazole-4-carbonyl)-6-chloro-5-fluorospiro[benzo[d][1,3]oxazine-4,3'-piperidin]-2(1H)-one]
8.14 | 6.24 | Nc1c(C(=O)N2CCC[C@@]3(C2)OC(=O)Nc2ccc(Cl)c(F)c23)cnn1CC1CC1 [Example 13, (R)-1'-(5-Amino-1-(cyclopropylmethyl)-1H-pyrazole-4-carbonyl)-6-chloro-5-fluorospiro[benzo[d][1,3]oxazine-4,3'-piperidin]-2(1H)-one]
7.37 | 5.50 | Nc1c(C(=O)N2CCC[C@@]3(C2)OC(=O)Nc2ccc(Cl)c(F)c23)cnn1CCN1CCOCC1 [Example 14, (R)-1'-(5-Amino-1-(2-morpholinoethyl)-1H-pyrazole-4-carbonyl)-6-chloro-5-fluorospiro[benzo[d][1,3]oxazine-4,3'-piperidin]-2(1H)-one]
7.77 | 6.05 | Nc1c(C(=O)N2CCC[C@@]3(C2)OC(=O)Nc2ccc(Cl)c(F)c23)cnn1CC(F)F [Example 15, (R)-1'-(5-Amino-1-(2,2-difluoroethyl)-1H-pyrazole-4-carbonyl)-6-chloro-5-fluorospiro[benzo[d][1,3]oxazine-4,3'-piperidin]-2(1H)-one]
8.39 | 6.36 | Nc1c(C(=O)N2CCC[C@@]3(C2)OC(=O)Nc2ccc(Cl)c(F)c23)cnn1CCc1ccccc1 [Example 16, (R)-1'-(5-Amino-1-phenethyl-1H-pyrazole-4-carbonyl)-6-chloro-5-fluorospiro[benzo[d][1,3]oxazine-4,3'-piperidin]-2(1H)-one]
